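Cells were grown in 96-well plates and exposed to each compound for 48 hours at five concentrations; endpoints were interpolated linearly between bracketing concentrations, or set to the highest concentration if not reached. GI50 = concentration required for 50% inhibition of growth.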 Activity calls are given as the source filed them. No stated cut-off is given here; in the data, active = GI50 up to about 1.1 µM and inactive = higher.
What was measured:
Assay in all cases: NCI anticancer screen, dose series, 48 h
SNB-19 = test system: SNB-19
UACC-62 = test system: UACC-62
A498 = test system: A498
COLO 205 = test system: COLO 205
MOLT-4 = test system: MOLT-4
SK-OV-3 = test system: SK-OV-3
OVCAR-5 = test system: OVCAR-5
OVCAR-3 = test system: OVCAR-3
Malme-3M = test system: Malme-3M
SF-295 = test system: SF-295
M14 = test system: M14
HOP-92 = test system: HOP-92
HCT-116 = test system: HCT-116
RPMI-8226 = test system: RPMI-8226
HOP-62 = test system: HOP-62
KM-20L2 = test system: KM-20L2
CCRF-CEM = test system: CCRF-CEM
IGROV-1 = test system: IGROV-1
M19-MEL = test system: M19-MEL
UO-31 = test system: UO-31
HT-29 = test system: HT-29
NCI-H460 = test system: NCI-H460
ACHN = test system: ACHN
U-251 = test system: U-251
786-0 = test system: 786-0
OVCAR-4 = test system: OVCAR-4
SNB-75 = test system: SNB-75
NCI-H522 = test system: NCI-H522
DMS-114 = test system: DMS-114
SNB-78 = test system: SNB-78
KM12 = test system: KM12
LXFL 529 = test system: LXFL 529
SR = test system: SR
SK-MEL-28 = test system: SK-MEL-28
NCI-H23 = test system: NCI-H23
UACC-257 = test system: UACC-257
RXF 393 = test system: RXF 393
SF-268 = test system: SF-268
K562 = test system: K562
T47D = test system: T47D
EKVX = test system: EKVX
HCC 2998 = test system: HCC 2998
Hs-578T = test system: Hs-578T
BT-549 = test system: BT-549
MDA-MB-231 = test system: MDA-MB-231
TK-10 = test system: TK-10
DU-145 = test system: DU-145
MDA-MB-435 = test system: MDA-MB-435
PC-3 = test system: PC-3
SN12C = test system: SN12C
LOX IMVI = test system: LOX IMVI
MDA-N = test system: MDA-N
CAKI-1 = test system: CAKI-1
SW-620 = test system: SW-620
SK-MEL-5 = test system: SK-MEL-5
NCI/ADR-RES = test system: NCI/ADR-RES
HCT-15 = test system: HCT-15
HL-60 = test system: HL-60
MCF7 = test system: MCF7
OVCAR-8 = test system: OVCAR-8
SK-MEL-2 = test system: SK-MEL-2
SF-539 = test system: SF-539
A549 = test system: A549
NCI-H226 = test system: NCI-H226

With `COc1ccc2c(c1)CC[C@@H]1C2CC[C@](C)(C#N)C1CC#N` (some centres not stated) the GI50 (SNB-19) was > 100 µM (inactive), the GI50 (UACC-62) was > 100 µM (inactive) and the GI50 (A498) was > 100 µM (inactive). For the same compound, the GI50 (COLO 205) was > 100 µM (inactive), the GI50 (MOLT-4) was > 100 µM (inactive) and the GI50 (SK-OV-3) was > 100 µM (inactive). The GI50 (OVCAR-5) was > 100 µM (inactive), the GI50 (OVCAR-3) was > 100 µM (inactive) and the GI50 (Malme-3M) was > 100 µM (inactive). For the same compound, the GI50 (SF-295) was > 100 µM (inactive), the GI50 (M14) was > 100 µM (inactive) and the GI50 (HOP-92) was > 100 µM (inactive). The GI50 (HCT-116) was > 100 µM (inactive), the GI50 (RPMI-8226) was > 100 µM (inactive) and the GI50 (HOP-62) was > 100 µM (inactive). The GI50 (KM-20L2) was > 100 µM (inactive), the GI50 (CCRF-CEM) was > 100000 nM (inactive) and the GI50 (IGROV-1) was > 100 µM (inactive). The GI50 (M19-MEL) was > 100 µM (inactive), the GI50 (UO-31) was > 100 µM (inactive) and the GI50 (HT-29) was > 100 µM (inactive). The GI50 (NCI-H460) was > 100 µM (inactive), the GI50 (ACHN) was > 100 µM (inactive) and the GI50 (U-251) was > 100 µM (inactive). The GI50 (786-0) was > 100 µM (inactive), the GI50 (OVCAR-4) was > 100 µM (inactive) and the GI50 (SNB-75) was > 100 µM (inactive). The GI50 (NCI-H522) was > 100 µM (inactive), the GI50 (DMS-114) was > 100 µM (inactive) and the GI50 (SNB-78) was > 100 µM (inactive). The GI50 (KM12) was > 100 µM (inactive), the GI50 (LXFL 529) was > 100 µM (inactive) and the GI50 (SR) was > 100 µM (inactive). The GI50 (SK-MEL-28) was > 100 µM (inactive), the GI50 (NCI-H23) was > 100 µM (inactive) and the GI50 (UACC-257) was > 100 µM (inactive). For the same compound, the GI50 (RXF 393) was > 100 µM (inactive), the GI50 (SF-268) was > 100 µM (inactive) and the GI50 (K562) was > 100 µM (inactive).

In the case of `N#C/C(=C\c1ccc([N+](=O)[O-])o1)c1n[nH]c(Cc2ccccc2)n1`, the GI50 (SNB-19) is reported as 4.93 µM (inactive), the GI50 (T47D) is reported as 2 µM (inactive) and the GI50 (UACC-62) is reported as 1.52 µM (inactive). For the same compound, the GI50 (A498) was 6.32 µM (inactive), the GI50 (COLO 205) was 1.23 µM (inactive) and the GI50 (MOLT-4) was 0.406 µM (active). For the same compound, the GI50 (SK-OV-3) was 4.52 µM (inactive), the GI50 (OVCAR-5) was 1.64 µM (inactive) and the GI50 (EKVX) was 2.72 µM (inactive). The GI50 (OVCAR-3) was 1.64 µM (inactive), the GI50 (Malme-3M) was 1.94 µM (inactive) and the GI50 (HCC 2998) was 1.63 µM (inactive). The GI50 (SF-295) was 7.26 µM (inactive), the GI50 (Hs-578T) was 3.98 µM (inactive) and the GI50 (BT-549) was 2.53 µM (inactive). The GI50 (MDA-MB-231) was 1.57 µM (inactive), the GI50 (M14) was 1.63 µM (inactive) and the GI50 (TK-10) was 2 µM (inactive). For the same compound, the GI50 (HOP-92) was 2.77 µM (inactive), the GI50 (DU-145) was 1.57 µM (inactive) and the GI50 (HCT-116) was 0.232 µM (active). The GI50 (MDA-MB-435) was 1.67 µM (inactive), the GI50 (RPMI-8226) was 0.335 µM (active) and the GI50 (PC-3) was 2.45 µM (inactive). The GI50 (HOP-62) was 2.62 µM (inactive), the GI50 (SN12C) was 1.49 µM (inactive) and the GI50 (CCRF-CEM) was 265 nM (active). For the same compound, the GI50 (IGROV-1) was 1.4 µM (inactive), the GI50 (LOX IMVI) was 1.07 µM (active) and the GI50 (MDA-N) was 1 µM (active). The GI50 (CAKI-1) was 1.95 µM (inactive), the GI50 (UO-31) was 2.66 µM (inactive) and the GI50 (SW-620) was 0.277 µM (active). The GI50 (SK-MEL-5) was 1.05 µM (active), the GI50 (HT-29) was 1.05 µM (active) and the GI50 (NCI/ADR-RES) was 2.79 µM (inactive). For the same compound, the GI50 (NCI-H460) was 3.3 µM (inactive), the GI50 (ACHN) was 1.78 µM (inactive) and the GI50 (HCT-15) was 0.281 µM. For the same compound, the GI50 (U-251) was 2.81 µM (inactive), the GI50 (786-0) was 0.847 µM (active) and the GI50 (HL-60) was 3.06 µM (inactive). The GI50 (OVCAR-4) was 1.82 µM (inactive), the GI50 (MCF7) was 2.28 µM (inactive) and the GI50 (SNB-75) was 2.52 µM (inactive). The GI50 (NCI-H522) was 0.368 µM (active), the GI50 (OVCAR-8) was 2.84 µM (inactive) and the GI50 (SK-MEL-2) was 1.99 µM (inactive). For the same compound, the GI50 (KM12) was 2.19 µM (inactive), the GI50 (SF-539) was 1.32 µM (inactive) and the GI50 (SR) was 0.173 µM (active). The GI50 (A549) was 2.56 µM (inactive), the GI50 (SK-MEL-28) was 2.03 µM (inactive) and the GI50 (NCI-H23) was 1.21 µM (inactive). For the same compound, the GI50 (UACC-257) was 1.91 µM (inactive), the GI50 (RXF 393) was 0.423 µM (active) and the GI50 (SF-268) was 0.641 µM (active). For the same compound, the GI50 (K562) was 1.55 µM (inactive) and the GI50 (NCI-H226) was 1.65 µM (inactive).

With `CCOC(=O)/C=C(/C(=O)OCC)n1cc(C)c(=O)n(Cc2cn(COCCOC(C)=O)nn2)c1=O` the GI50 (SNB-19) was > 52.6 µM (inactive), the GI50 (T47D) was 25.8 µM (inactive) and the GI50 (UACC-62) was 17.1 µM (inactive). For the same compound, the GI50 (A498) was 50.5 µM (inactive), the GI50 (COLO 205) was 7.82 µM (inactive) and the GI50 (MOLT-4) was 15 µM (inactive). The GI50 (SK-OV-3) was > 100 µM (inactive), the GI50 (OVCAR-5) was 27.8 µM (inactive) and the GI50 (EKVX) was 16.7 µM (inactive). For the same compound, the GI50 (OVCAR-3) was 24.7 µM (inactive), the GI50 (Malme-3M) was 11 µM (inactive) and the GI50 (HCC 2998) was 17.3 µM (inactive). For the same compound, the GI50 (SF-295) was > 100 µM (inactive), the GI50 (Hs-578T) was 26.3 µM (inactive) and the GI50 (BT-549) was 19.9 µM (inactive). For the same compound, the GI50 (MDA-MB-231) was 28.4 µM (inactive), the GI50 (M14) was 46 µM (inactive) and the GI50 (TK-10) was 14.2 µM (inactive). The GI50 (HOP-92) was 13.2 µM (inactive), the GI50 (DU-145) was 36.3 µM (inactive) and the GI50 (HCT-116) was 20.7 µM (inactive). The GI50 (MDA-MB-435) was 18.3 µM (inactive), the GI50 (RPMI-8226) was 17.9 µM (inactive) and the GI50 (PC-3) was 37.3 µM (inactive). For the same compound, the GI50 (HOP-62) was > 100 µM (inactive), the GI50 (SN12C) was 25.8 µM (inactive) and the GI50 (CCRF-CEM) was 984 nM (active). The GI50 (IGROV-1) was 17.2 µM (inactive), the GI50 (LOX IMVI) was 22.2 µM (inactive) and the GI50 (MDA-N) was 38.3 µM (inactive). The GI50 (CAKI-1) was 9.59 µM (inactive), the GI50 (UO-31) was 1.07 µM (active) and the GI50 (SW-620) was 6.84 µM (inactive). For the same compound, the GI50 (SK-MEL-5) was 24.9 µM (inactive), the GI50 (HT-29) was 16.1 µM (inactive) and the GI50 (NCI/ADR-RES) was 21 µM (inactive). For the same compound, the GI50 (NCI-H460) was > 40.6 µM (inactive), the GI50 (ACHN) was 7.06 µM (inactive) and the GI50 (HCT-15) was 20.7 µM. For the same compound, the GI50 (U-251) was 26.3 µM (inactive), the GI50 (786-0) was 20 µM (inactive) and the GI50 (HL-60) was 8.57 µM (inactive). For the same compound, the GI50 (OVCAR-4) was 20 µM (inactive), the GI50 (MCF7) was 16.5 µM (inactive) and the GI50 (SNB-75) was 33.2 µM (inactive). The GI50 (NCI-H522) was 2.49 µM (inactive), the GI50 (OVCAR-8) was 16.2 µM (inactive) and the GI50 (SK-MEL-2) was 45.8 µM (inactive). The GI50 (KM12) was 23.1 µM (inactive), the GI50 (SF-539) was 15.9 µM (inactive) and the GI50 (SR) was 20.9 µM (inactive). The GI50 (A549) was > 100 µM (inactive), the GI50 (SK-MEL-28) was 19.8 µM (inactive) and the GI50 (NCI-H23) was 6.18 µM (inactive). The GI50 (UACC-257) was 20.7 µM (inactive), the GI50 (RXF 393) was 23.7 µM (inactive) and the GI50 (SF-268) was 19.5 µM (inactive). The GI50 (K562) was 7.18 µM (inactive) and the GI50 (NCI-H226) was 21.1 µM (inactive).
